From patent publication US20260364040A1, “MONO- AND BIS-NITROSYLATED PROPANEDIOLS FOR USE IN THE TREATMENT OF A THROMBOEMBOLIC DISEASE” (ATTGENO AB, priority 2023, published 2026)

What was measured:
[1] = tested on: SFLLRN (PAR-1 agonist) stimulated platelets in human whole blood; experiment: Platelet aggregation in human whole blood (impedance, Multiplate aggregometer); type: cell-based; conditions: drug added 2 min prior to SFLLRN, impedance 10 min, AUC, n=4
Protocol: FIG. 8: Platelet aggregation in whole blood. Suspensions of human blood were stimulated by the PAR-1 agonist […] in the absence (open bar) and presence of either PDNO (black bar) or nitroglycerine (grey bar). The NO-donating drugs were introduced to the blood 2 min prior to SFLLRN. Platelet aggregation response was analysed as increases in impedance over a period of 10 min and is expressed as area under the curve. The bars represent mean value and standard deviation (n=4).
Potential anti-thrombotic effect of PDNO in vitro was evaluated by analysing aggregation responses to the thrombin mimetic hexapeptide SFLLRN. […]
Heparinized human or pig blood (0.5 ml) was diluted 1:1 with Krebs-Ringer glucose (KRG) buffer (isotone saline, pH 7.4). […] Platelet aggregation in vitro (human blood) and ex vivo (pig blood) was measured as increase in electrical impedance between two platinum electrodes. […]
In the in vitro experiments, PDNO or nitroglycerine (used as control drug) was introduced 2 min prior to the hexapeptide SFLLRN. […] Aggregation responses were registered during 10 min and expressed as area under curve.
Platelet aggregation in whole blood (human blood with heparin as anticoagulant) was analysed as increases in electrical resistance (impedance changes between two platinum electrodes) using a Multiplate aggregometer.

[2] = tested on: VASP (Ser239 phosphorylation), NO/cyclic GMP signalling in human platelets; experiment: Ser239-specific VASP phosphorylation in isolated human platelets (Western blotting); type: cell-based; conditions: 5 min exposure, unstimulated and SFLLRN-stimulated platelets, n=3
Protocol: FIG. 9: Increases in Ser 239-specific VASP phosphorylation in platelets. Suspensions of isolated human blood platelets were stimulated by either PDNO or nitroglycerine. The platelets were exposed to the NO-donors for 5 min followed by Western immuno blotting for phosphoVASP detection. These experiments were conducted in unstimulated and SFLLRN-stimulated platelets. The PAR-1 agonist was added 2 min after PDNO/nitroglycerine. The bars represent mean value and standard deviation (n=3).
In platelets and vascular smooth muscle cells, the cytoskeleton-binding protein vasodilator-stimulated phosphoprotein (VASP) is a main molecular target for NO/cyclic GMP signalling pathway. Ser239 specific phosphorylation of VASP following NO exposure of platelets is believed to be a pivotal molecular mechanism underlying anti-aggregatory/antithrombotic effects of NO. The effect of PDNO on Ser239-specific VASP phosphorylation was analysed by Western (immuno) blotting.
Aliquots of isolated platelet suspensions were exposed to either PDNO or nitroglyceine for 5 min. This series of experiments were conduced both on resting and SFLLRN-stimulated platelets.
Specifically, NO/cyclic GMP-induced phosphorylation of Ser239 on vasodilator-stimulated phosphoproteins (VASP) was detected by Western blotting. […]

[3] = rabbit model, Cederqvist et al. 1994; cited from earlier work
[4] = Circulation times and in vivo half-life estimation from injections and infusions; design: species or system pig
Protocol: Intraarterial injections in the left CCA and left CFA and central intravenous injections (PDNO 0.5-4 micromol) were used to estimate in vivo half-life of PDNO in anesthetized, instrumented pigs (n=2). Regional blood flow, mean systemic arterial pressure (MAP), end-tidal nitric oxide (ETNO) and arterial blood gases were measured.
In addition, 10 ml of 5% sodium bicarbonate solution was injected at these sites.
Between the local intraarterial infusion routes, intravenous infusions in the central venous catheter at four doses (3, 10, 30 and 100 nmol kg^−1 min^−1, 10 minutes per dose) were given for reference. There was a washout period of 60 minutes between the PDNO administration.
Primary outcome was effects on regional blood flow, systemic blood pressure and end-tidal nitric oxide (ETNO). […]
The median (25-75 percentiles) circulation times from the carotid and femoral intraarterial injection sites were to first exhalation with increased ETNO 13.5 s (12.3-15.4, n=13) s and 13.7 s (12.9-15.2, n=9), respectively, and from the central intravenous injection site 5.0 s (4.3-5.9, n=29) and 5.3 s (3.3-5.8, n=9). The circulation times between the carotid and femoral intraarterial injection sites to the central intravenous injection site were calculated to 8.5 s and 8.4 s as depicted in Table 1 below.

Compound | correlation between in vivo generation of NO and effects on blood pressure [3] | also measured
O=[N+]([O-])OCC(CO[N+](=O)[O-])O[N+](=O)[O-] [nitroglycerine, 1,2,3-propanetriol-nitrate] | significant correlation between the in vivo generation of NO and effects on blood pressure | SFLLRN-induced platelet aggregation, whole blood [1]: not nitroglycerine significantly inhibited SFLLRN-induced platelet aggregation; Ser239-specific VASP phosphorylation [2]: not nitroglycerine provoked a significant increase in Ser239-specific VASP phosphorylation
CCCCON=O [butyl nitrite] | significant correlation between the in vivo generation of NO and effects on blood pressure | –
CC(C)CO[N+](=O)[O-] [isobutyl nitrate] | significant correlation between the in vivo generation of NO and effects on blood pressure | –
O=C([O-])O.[Na+] [Sodium bicarbonate] | – | Circulation time (median) between intraarterial and intravenous injection site ([4]; carotid artery and intravenous): 7.0 s; Circulation time (median) between intraarterial and intravenous injection site ([4]; femoral artery and intravenous): 8.9 s
CC(C)CCON=O [isoamyl nitrite] | significant correlation between the in vivo generation of NO and effects on blood pressure | –
CCON=O [ethyl nitrite] | significant correlation between the in vivo generation of NO and effects on blood pressure | –
CC(C)CON=O [isobutyl nitrite] | significant correlation between the in vivo generation of NO and effects on blood pressure | –
